Entries after “also recorded” stand apart in the source; their conditions may differ.
How the values were obtained:
[1] = system: mouse distal colonic closed loops; assay: Closed distal colonic loop fluid absorption in mice; type: in vivo; conditions: 10 µM intraluminal, 60 min
Procedure: (§1) Female CD1 mice (age 8-10 weeks) were given free access to Pedialyte (per liter: Na^+ 45 mEq, Cl^- 35 mEq, K^+ 20 mEq, dextrose 25 g; Abbott, Abbot Park, IL) but not solid food for 48 h before experiments. Mice were treated with 500 µL mineral oil once a day rectally (last dose 12 h before surgeries) during this period to evacuate the colon. Closed intestinal loops were isolated as described. Mice were anesthetized with isoflurane and body temperature was maintained during surgery at 36-38° C. using a heating pad. A small abdominal incision was made to expose the distal colon, and one closed distal colonic loop (length 1.5-2 cm) was isolated with sutures in each mouse. Loops were injected with 100 µL phosphate-buffered saline (PBS, pH: 7.4, in mM: 137 NaCl, 2.7 KCl, 8 Na2HPO4, 1.8 KH2PO4, 1 CaCl2, 0.5 MgCl2) without and with 10 µM Compound A1 and/or 10 µM tenapanor (MedChemExpress, Monmouth Junction, NJ). The abdominal incision was closed with sutures, and mice were allowed to recover from anesthesia. Colonic loops were removed at 0 and 60 min (in separate mice) and loop length and weight were measured to quantify fluid absorption. Luminal fluid was emptied with a syringe and pH was measured immediately using AB15 pH Meter (Thermo Fisher Scientific, South San Francisco, CA). In separate studies, mid-jejunal loops (length 2-3 cm, 3-4 loops per mouse) were isolated as described above, injected with 100 µL PBS without or with 10 µM Compound A1 and/or 10 µM tenapanor, and excised at 0 and 30 min to measure loop length and weight.
Closed intestinal loop studies in mice were done to study effects of Compound A1 on fluid absorption. […] Changes in luminal pH were also determined as a semi-quantitative measure of slc26a3-facilitated HCO3^- secretion / C1^- absorption, with slc26a3 inhibition predicted to reduce luminal fluid alkalinization. For these experiments, a phosphate-buffered solution (PBS) without HCO3^- / CO2 was used to avoid confounding effects of luminal carbonic anhydrases. […] Administration of the NHE3 (Na^+/H^+ exchanger 3) inhibitor tenapanor had no effect on weight/length ratio or luminal pH in distal colonic loops.

[2] = system: mouse mid-jejunal closed loops; assay: Closed mid-jejunal loop fluid absorption in mice; type: in vivo; conditions: 10 µM intraluminal, 30 min
Procedure: as §1

[3] = system: loperamide-treated wild-type mice; assay: Loperamide-induced constipation model in wild-type mice; type: in vivo; conditions: 5 mg/kg oral gavage 1 hour before loperamide, wild-type mice
Procedure: Female CD1 mice (age 8-10 weeks) were administered loperamide (0.3 mg/kg, intraperitoneally, Sigma-Aldrich) to produce constipation. Compound A1 (DRAinh-A250) (5 mg/kg, in saline containing vehicle (5% DMSO and 10% Kolliphor HS 15; Sigma-Aldrich)), tenapanor (5 mg/kg, in vehicle), both compounds (5 mg/kg each, in vehicle), or vehicle alone were administered by oral gavage 1 hour before loperamide. After loperamide injection, mice were placed individually in metabolic cages with ad libitum access to food and water. Stool samples were collected for 3 h, and total stool weight and number of fecal pellets were quantified. To measure stool water content, stool samples were dried at 80° C. for 24 h and water content was calculated as [wet weight-dry weight]/wet weight. Similar studies were done in cystic fibrosis (CF) mice (ΔF508 homozygous) lacking functional CFTR.
Constipation Model in MiceDRAinh-A260 and DRAinh-A270 were tested in a loperamide-induced constipation model in mice. Female CD1 mice (age 8-10 weeks) were administered loperamide (0.3 mg/kg, intraperitoneally, in 5% ethanol in PBS, 0.1 mg/mL final concentration) to produce constipation and vehicle in control mice. DRAinh-A260 (5 mg/kg, in saline with 5% DMSO and 10% Kolliphor HS 15) or DRAinh-A270 (1, 3 or 10 mg/kg, in PBS with 5% DMSO and 20% (2- hydroxypropyl)-β-cyclodextrin) or vehicle alone were administered by oral gavage 1 hour before loperamide (FIG. 11A). After loperamide injection, mice were placed individually in metabolic cages with free access to food and water. Stool samples were collected for 3 hours, and total stool weight and number of fecal pellets were quantified. To measure stool water content, stool samples were dried at 80° C. for 24 hours and water content was calculated as [wet weight-dry weight]/wet weight.

NHE3 = target: T1, NHE3 (Homo sapiens, UniProt P48764); conditions: Phase 3, IBS-C, treated group (placebo 18.7 %); cited from earlier work
T1 sequence (P48764 26-834): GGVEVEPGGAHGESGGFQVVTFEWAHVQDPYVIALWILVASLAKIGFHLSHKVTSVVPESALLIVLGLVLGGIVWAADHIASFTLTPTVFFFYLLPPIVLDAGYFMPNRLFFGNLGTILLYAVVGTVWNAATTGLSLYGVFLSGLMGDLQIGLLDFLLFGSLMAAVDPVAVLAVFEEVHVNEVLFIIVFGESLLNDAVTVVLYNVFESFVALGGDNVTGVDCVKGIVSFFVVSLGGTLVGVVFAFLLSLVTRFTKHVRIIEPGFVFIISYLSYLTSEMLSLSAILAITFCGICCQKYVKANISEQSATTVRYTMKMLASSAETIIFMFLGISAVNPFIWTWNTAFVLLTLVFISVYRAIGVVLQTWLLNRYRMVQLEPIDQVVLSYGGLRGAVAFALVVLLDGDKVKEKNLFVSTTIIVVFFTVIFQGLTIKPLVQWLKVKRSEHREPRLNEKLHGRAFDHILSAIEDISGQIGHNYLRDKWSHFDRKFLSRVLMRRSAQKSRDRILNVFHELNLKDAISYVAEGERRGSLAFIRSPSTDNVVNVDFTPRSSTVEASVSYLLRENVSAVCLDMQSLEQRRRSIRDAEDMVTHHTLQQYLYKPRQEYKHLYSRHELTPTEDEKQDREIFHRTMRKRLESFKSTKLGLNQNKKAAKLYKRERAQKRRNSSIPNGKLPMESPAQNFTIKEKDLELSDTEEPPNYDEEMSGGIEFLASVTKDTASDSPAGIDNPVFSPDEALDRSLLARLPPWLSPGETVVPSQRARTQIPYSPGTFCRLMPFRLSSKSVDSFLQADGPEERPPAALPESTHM

With `CN1Cc2c(Cl)cc(Cl)cc2[C@H](c2cccc(S(=O)(=O)NCCOCCOCCNC(=O)NCCCCNC(=O)NCCOCCOCCNS(=O)(=O)c3cccc([C@@H]4CN(C)Cc5c(Cl)cc(Cl)cc54)c3)c2)C1` [tenapanor, reference compound] the “loop weight/length ratio (fluid absorption), distal colonic loops” value [1] was “had no effect”, the “luminal pH, distal colonic loops” value [1] was “had no effect” and the “loop weight/length ratio (fluid absorption), mid-jejunal loops” value [2] was “fluid absorption was abolished; also recorded: blocked absorption in jejunal”. The “luminal fluid pH, mid-jejunal loops” value [2] was “preventing acidification and producing slight alkalinization”, the “three-hour stool weight, number of pellets and stool water content” value [3] was “comparably reduced signs of constipation” and the “three-hour stool weight, number of pellets and stool water content” value ([3]; listed as Tenapanor) was “partially prevented”. For the same molecule, the “combined pain and stool pattern response rate” value (NHE3) was 27%.

From patent US20230339878A1, “SLC26A3 INHIBITORS AND USE THEREOF” (THE REGENTS OF THE UNIVERSITY OF CALIFORNIA, priority 2018, published 2023)
